Laboratory results as given in patent US11234957B2, “Process for preparing water soluble forskolin” (SciPharm S.à.r.l., priority 2017, dated 2022).
Like-named read-outs stand apart in the source and are kept apart here.

Key:
[1] = Maximum solubility of forskolin in aqueous hydroxypropyl-cyclodextrin solutions (Laurenza et al., 1987); type: physicochemical
From the text: Aqueous solutions of forskolin had also been produced by dissolving forskolin in solutions of hydroxypropyl-γ-cyclodextrin.

[2] = cited from earlier work
adenylyl cyclase = assay: Cell culture test - cAMP assay; type: cell-based; details: versus forskolin dissolved in DMSO; FIG. 4 and summary
Procedure: The method was performed at the Institute of Pharmacology, Medical University […] of Vienna, Prof. Michael Freissmuth. The forskolin-CD complex was compared with an established method, where forskolin is dissolved and diluted in DMSO. The method has been described previously (Hussain F, et al., BMC Pharmacology 11 (2013), Suppl 2, A6) and is a test platform for the assessment of the chemical induction of stem cells.
Also, the lack of DMSO, which is considered to be a PDE inhibitor (see above), had no […] effect on the results based on preliminary theoretical and practical aspects. The following batches were tested in aliquot molar concentrations as an activator of adenylyl cyclase: […]

## C=C[C@@]1(C)CC(=O)[C@]2(O)[C@@]3(C)[C@@H](O)CCC(C)(C)[C@@H]3[C@H](O)[C@H](OC(C)=O)[C@@]2(C)O1 [forskolin, 7-beta-acetoxy-8,13-epoxy-1-alpha, 6-beta, 9-alpha-trihydroxylabd-14-en-11-one]
[1]; in 40% (w/v) hydroxypropyl-ß-cyclodextrin
  increase of solubility: approx. 16 fold
[1]; in 40% (w/v) hydroxypropyl-γ-cyclodextrin
  increase of solubility: approx. 65 fold
[2]; in 40% (w/v) aqueous solution of hydroxypropyl-ß-cyclodextrin
  Maximum solubility of forskolin: 2.5 mM
[2]; in 40% (w/v) aqueous solution of hydroxypropyl-γ-cyclodextrin
  Maximum solubility of forskolin: 9.8 mM

## COC(=O)[C@@H]1C[C@H](OC(C)=O)C(=O)[C@H]2[C@@]1(C)CC[C@H]1C(=O)O[C@H](c3ccoc3)C[C@]21C [salvinorin A]
Adenylyl cyclase
  activation of adenylyl cyclase: Inactive

## COC(=O)[C@@H]1C[C@H](O)C(=O)[C@H]2[C@@]1(C)CC[C@H]1C(=O)O[C@H](c3ccoc3)C[C@]21C [salvinorin B]
Adenylyl cyclase
  activation of adenylyl cyclase: Inactive
